# Results published in ChEMBL document CHEMBL4831545, “Hormesis Effect of Berberine against Klebsiella pneumoniae Is Mediated by Up-Regulation of the Efflux Pump KmrA” (J Nat Prod, 2021).
# Calls of active or inactive are those of the source. The rule behind the calls is not given here.
# Key:
# [1] = system: Klebsiella pneumoniae; assay: Hormesis activity against Klebsiella pneumonia assessed as inhibition of bacterial growth by measuring shortened logarithmic growth phase at 25 to 50 ug/ml measured after 24 hrs by OD600 based analysis; type: functional, organism-based; details: dose 25-50 µg/ml
# [2] = Upregulation of efflux pump KmrA gene expression in Klebsiella pneumoniae at 3 ug/ml incubated for 12 hrs by transcriptome analysis; type: ADME; details: dose 3 µg/ml
# [3] = Upregulation of efflux pump regulator promoter activity in Klebsiella pneumoniae assessed as increase in beta-galactosidase activity at 3 to 50 ug/ml by LacZ based OD600 analysis; type: ADME; details: dose 3-50 µg/ml
# [4] = system: Klebsiella pneumoniae; assay: Hormesis activity against Klebsiella pneumonia assessed as promotion of bacterial growth by measuring prolonged logarithmic growth phase at 3 to 6 ug/ml measured for 24 hrs in presence of 1 ug/ml tetracycline by OD600 based analysis; type: organism-based; details: in vivo, dose 3-6 µg/ml
# [5] = system: Klebsiella pneumoniae; assay: Hormesis activity against Klebsiella pneumonia assessed as inhibition of bacterial growth at 25 to 50 ug/ml measured for 24 hrs in presence of 2 ug/ml tetracycline by OD600 based analysis; type: functional, organism-based; details: dose 25-50 µg/ml
# [6] = system: Klebsiella pneumoniae; assay: Hormesis activity against Klebsiella pneumonia assessed as promotion of bacterial growth at 3 to 50 ug/ml measured for 24 hrs in presence of 4 ug/ml tetracycline by OD600 based analysis; type: organism-based; details: in vivo, dose 3-50 µg/ml
# [7] = system: Enterobacter cloacae; assay: Hormesis activity against Enterobacter cloacae assessed as promotion of bacterial growth by measuring prolonged logarithmic growth phase at 3 to 6 ug/ml measured for 24 hrs by OD600 based analysis; type: organism-based; details: in vivo, dose 3-6 µg/ml
# [8] = system: Enterobacter cloacae; assay: Hormesis activity against Enterobacter cloacae assessed as promotion of bacterial growth up to 25 ug/ml measured for 24 hrs in presence of efflux pump inhibitor, CCCP and 8 ug/ml tetracycline by OD600 based analysis; type: ADME, organism-based; details: in vivo, dose <=25 µg/ml
# [9] = system: Acinetobacter baumannii; assay: Hormesis activity against Acinetobacter baumannii assessed as promotion of bacterial growth at 3 to 50 ug/ml measured for 24 hrs in presence of efflux pump inhibitor, CCCP and 80 to 120 ug/ml tetracycline by OD600 based analysis; type: ADME, organism-based; details: in vivo, dose 3-50 µg/ml
# [10] = system: Klebsiella pneumoniae; assay: Hormesis activity against Klebsiella pneumoniae assessed as increase in antibiotic MIC by measuring hygromycinMIC at 3 ug/ml incubated for 12 hrs by OD600 based analysis (reference value: 12.5 ug/ml); type: ADME, organism-based; details: in vivo, dose 3 µg/ml
# [11] = system: Klebsiella pneumoniae; assay: Hormesis activity against Klebsiella pneumoniae assessed as increase in antibiotic MIC by measuring meropenem MIC at 3 ug/ml incubated for 12 hrs by OD600 based analysis (reference value: 0.39625 ug/ml); type: ADME, organism-based; details: in vivo, dose 3 µg/ml
# [12] = system: Klebsiella pneumoniae; assay: Hormesis activity against Klebsiella pneumoniae assessed as increase in antibiotic MIC by measuring cefotaxime MIC at 3 ug/ml incubated for 12 hrs by OD600 based analysis (reference value: 0.39625 ug/ml); type: ADME, organism-based; details: in vivo, dose 3 µg/ml
# [13] = system: Klebsiella pneumoniae; assay: Hormesis activity against overnight compound-treated Klebsiella pneumoniae assessed as increase in antibiotic MIC by measuring tetracycline MIC at 3 ug/ml incubated for 12 hrs by OD600 based analysis (reference value: 6 ug/ml); type: ADME, organism-based; details: in vivo, dose 3 µg/ml
# [14] = system: Klebsiella pneumoniae; assay: Hormesis activity against overnight compound-treated Klebsiella pneumoniae assessed as increase in antibiotic MIC by measuring ciprofloxacin MIC at 3 ug/ml incubated for 12 hrs by OD600 based analysis (reference value: 0.0390625 ug/ml); type: ADME, organism-based; details: in vivo, dose 3 µg/ml
# [15] = system: Klebsiella pneumoniae; assay: Hormesis activity against overnight compound-treated Klebsiella pneumoniae assessed as increase in antibiotic MIC by measuring atreonamMIC at 3 ug/ml incubated for 12 hrs by OD600 based analysis (reference value: 1.5625 ug/ml); type: ADME, organism-based; details: in vivo, dose 3 µg/ml
# [16] = system: Klebsiella pneumoniae; assay: Hormesis activity against Klebsiella pneumoniae deficient in KmrA gene expression assessed as increase in antibiotic MIC by measuring tetracycline MIC at 3 ug/ml incubated for 12 hrs by OD600 based analysis (reference value: 6 ug/ml); type: ADME, organism-based; details: in vivo, dose 3 µg/ml
# [17] = system: Klebsiella pneumoniae; assay: Hormesis activity against Klebsiella pneumoniae deficient in KmrA gene expression assessed as increase in antibiotic MIC by measuring ampicillin MIC at 3 ug/ml incubated for 12 hrs by OD600 based analysis (reference value: 12.5 ug/ml); type: ADME, organism-based; details: in vivo, dose 3 µg/ml
# [18] = system: Klebsiella pneumoniae; assay: Hormesis activity against Klebsiella pneumoniae deficient in KmrA gene expression assessed as increase in antibiotic MIC by measuring meropenem MIC at 3 ug/ml incubated for 12 hrs by OD600 based analysis (reference value: 0.39625 ug/ml); type: ADME, organism-based; details: in vivo, dose 3 µg/ml
# [19] = system: Klebsiella pneumoniae; assay: Hormesis activity against Klebsiella pneumoniae deficient in KmrA gene expression assessed as increase in antibiotic MIC by measuring cefotaxime MIC at 3 ug/ml incubated for 12 hrs by OD600 based analysis (reference value: 0.39625 ug/ml); type: ADME, organism-based; details: in vivo, dose 3 µg/ml
# [20] = system: Klebsiella pneumoniae; assay: Hormesis activity against overnight compound-treated Klebsiella pneumoniae deficient in KmrA gene expression assessed as increase in antibiotic MIC by measuring chloramphenicol MIC at 3 ug/ml incubated for 12 hrs by OD600 based analysis (reference value: 6.25 ug/ml); type: ADME, organism-based; details: in vivo, dose 3 µg/ml
# [21] = system: Klebsiella pneumoniae; assay: Hormesis activity against overnight compound-treated Klebsiella pneumoniae deficient in KmrA gene expression assessed as increase in antibiotic MIC by measuring hygromycinMIC at 3 ug/ml incubated for 12 hrs by OD600 based analysis (reference value: 12.5 ug/ml); type: ADME, organism-based; details: in vivo, dose 3 µg/ml
# [22] = system: Klebsiella pneumoniae; assay: Hormesis activity against overnight compound-treated Klebsiella pneumoniae deficient in KmrA gene expression assessed as increase in antibiotic MIC by measuring meropenem MIC at 3 ug/ml incubated for 12 hrs by OD600 based analysis (reference value: 0.39625 ug/ml); type: ADME, organism-based; details: in vivo, dose 3 µg/ml
# [23] = system: Enterobacter cloacae; assay: Hormesis activity against overnight compound-treated Enterobacter cloacae assessed as increase in antibiotic MIC by measuring tetracycline MIC at 3 ug/ml incubated for 12 hrs by OD600 based analysis (reference value: 8 ug/ml); type: ADME, organism-based; details: in vivo, dose 3 µg/ml
# [24] = system: Enterobacter cloacae; assay: Hormesis activity against overnight compound-treated Enterobacter cloacae assessed as increase in antibiotic MIC by measuring hygromycinMIC at 3 ug/ml incubated for 12 hrs by OD600 based analysis (reference value: 25 ug/ml); type: ADME, organism-based; details: in vivo, dose 3 µg/ml
# [25] = system: Enterobacter cloacae; assay: Hormesis activity against overnight compound-treated Enterobacter cloacae assessed as increase in antibiotic MIC by measuring meropenem MIC at 3 ug/ml incubated for 12 hrs by OD600 based analysis (reference value: 0.1953 ug/ml); type: ADME, organism-based; details: in vivo, dose 3 µg/ml
# [26] = system: Acinetobacter baumannii; assay: Hormesis activity against Acinetobacter baumannii assessed as increase in antibiotic MIC by measuring ciprofloxacin MIC at 3 ug/ml incubated for 12 hrs by OD600 based analysis (reference value: 0.3125 ug/ml); type: ADME, organism-based; details: in vivo, dose 3 µg/ml
# [27] = system: Acinetobacter baumannii; assay: Hormesis activity against overnight-compound treated Acinetobacter baumannii assessed as increase in antibiotic MIC by measuring rifampicin MIC at 3 ug/ml incubated for 12 hrs by OD600 based analysis (reference value: 1.5625 ug/ml); type: ADME, organism-based; details: in vivo, dose 3 µg/ml
# [28] = system: Acinetobacter baumannii; assay: Hormesis activity against overnight-compound treated Acinetobacter baumannii assessed as increase in antibiotic MIC by measuring streptomycin MIC at 3 ug/ml incubated for 12 hrs by OD600 based analysis (reference value: 400 ug/ml); type: ADME, organism-based; details: in vivo, dose 3 µg/ml
# [29] = system: Acinetobacter baumannii; assay: Hormesis activity against overnight-compound treated Acinetobacter baumannii assessed as increase in antibiotic MIC by measuring cefotaxime MIC at 3 ug/ml incubated for 12 hrs by OD600 based analysis (reference value: 12.5 ug/ml); type: ADME, organism-based; details: in vivo, dose 3 µg/ml
smiles,measurement,setting,value
COc1ccc2cc3[n+](cc2c1OC)CCc1cc2c(cc1-3)OCO2 [BERBERINE],Activity,[1],Active
same,Activity,[2],Toxic
same,Activity,[3],Toxic
same,Activity,[4],Toxic
same,Activity,[5],Active
same,Activity,[6],Toxic
same,Activity,[7],Toxic
same,Activity,[8],Non-Toxic
same,Activity,[9],Non-Toxic
same,MIC,[10],12.5 µg/mL
same,MIC,[11],0.3962 µg/mL
same,MIC,[12],0.3962 µg/mL
same,MIC,[13],12 µg/mL
same,MIC,[14],0.1562 µg/mL
same,MIC,[15],1.5625 µg/mL
same,MIC,[16],6 µg/mL
same,MIC,[17],12.5 µg/mL
same,MIC,[18],0.3962 µg/mL
same,MIC,[19],0.3962 µg/mL
same,MIC,[20],6.25 µg/mL
same,MIC,[21],12.5 µg/mL
same,MIC,[22],0.3962 µg/mL
same,MIC,[23],16 µg/mL
same,MIC,[24],25 µg/mL
same,MIC,[25],0.1953 µg/mL
same,MIC,[26],0.3125 µg/mL
same,MIC,[27],6.25 µg/mL
same,MIC,[28],400 µg/mL
same,MIC,[29],12.5 µg/mL
